Reference: patent US8618095B2 (Rigel Pharmaceuticals, Inc., priority 2010, dated 2013)
Counter-ions that a name gives are not always drawn.

System: Human mast cells (CHMC)
Assay: LD Tryptase release assay in CHMC (mast cell activation induced by FcγR cross-linking)
Assay type: cell-based
Details: Homo sapiens, Mast cell, anti-IgG stimulation, activity of tryptase released upon degranulation
How it was run: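 Mast cells derived from CD38-negative progenitors were preincubated 1 h at 37 °C with compound in HEPES-buffered saline (pH 7.4, 0.1% BSA, compound diluted in buffer with 2% MeOH/1% DMSO). Cells were then stimulated 60 min with anti-human IgG (final 1 μg/mL). Released tryptase was measured on Z-Ala-Lys-Arg-AMC (30 min, room temperature, 355/460 nm) to give the IC50.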

Row | IC50 | Compound
1 | 100 to 500 nM | CN(C[C@@H]1CCCO1)c1ccc(Nc2ncc(F)c(Nc3ccc4c(n3)NC(=O)CO4)n2)cn1 [Compound 108, N4-(3,4-dihydro-3-oxo-2H-pyrido[3,2-b][1,4]oxazin-6-yl)-5-fluoro-N2-[6-(((S)-methyl(tetrahydrofuran-2-yl)methyl)amino)pyridin-3-yl]-2,4-pyrimidinediamine]
2 | < 100 nM | CN(C)C[C@@H]1CN(c2ccc(Nc3ncc(F)c(Nc4ccc5c(n4)NC(=O)CO5)n3)cc2)CCO1 (racemic) [Compound 121, rac-N4-(3,4-dihydro-3-oxo-2H-pyrido[3,2-b][1,4]oxazin-6-yl)-N2-[4-((2-dimethylaminomethyl)morpholino)phenyl]-5-fluoro-2,4-pyrimidinediamine]
3 | 1000 to 100000 nM | CC1(C)Oc2ccc(Nc3nc(Nc4ccc(N5CC(O)C5)nc4)ncc3F)nc2NC1=O [Compound 146, N4-(2,2-dimethyl-3,4-dihydro-3-oxo-2H-pyrido[3,2-b][1,4]oxazin-6-yl)-5-fluoro-N2-[6-(3-hydroxyazetidin-1-yl)pyridin-3-yl]-2,4-pyrimidinediamine]
4 | < 100 nM | O=C1COc2ccc(Nc3nc(Nc4ccc(N5CCO[C@@H](CO)C5)cc4)ncc3F)nc2N1 [Compound 127, N4-(3,4-dihydro-3-oxo-2H-pyrido[3,2-b][1,4]oxazin-6-yl)-5-fluoro-N2-[4-((2-hydroxymethyl)morpholino)phenyl]-2,4-pyrimidinediamine]
5 | 100 to 500 nM | CC1(C)Oc2ccc(Nc3nc(Nc4ccc(N5CCC(C#N)CC5)cc4)ncc3F)nc2NC1=O [Compound 154, N4-(2,2-dimethyl-3,4-dihydro-3-oxo-2H-pyrido[3,2-b][1,4]oxazin-6-yl)-5-fluoro-N2-[4-(4-cyanopiperidin-1-yl)phenyl]-2,4-pyrimidinediamine]
6 | < 100 nM | [2H]C1([2H])OC([2H])([2H])C([2H])([2H])N(c2ccc(Nc3ncc(F)c(Nc4ccc5c(n4)NC(=O)CO5)n3)cc2)C1([2H])[2H] [Compound 130, N4-(2,2-dimethyl-3,4-dihydro-3-oxo-2H-pyrido[3,2-b][1,4]oxazin-6-yl)-5-fluoro-N2-[4-(2,2,3,3,5,5,6,6-d8-morpholino)phenyl]-2,4-pyrimidinediamine]
7 | < 100 nM | CCCN1C(=O)COc2ccc(Nc3nc(Nc4ccc(N5CCOCC5)c(C(F)(F)F)c4)ncc3F)nc21 [Compound 148, N4-(3,4-dihydro-3-oxo-4-propyl-2H-pyrido[3,2-b][1,4]oxazin-6-yl)-5-fluoro-N2-[4-morpholino-3-(trifluoromethyl)phenyl]-2,4-pyrimidinediamine]
8 | 100 to 500 nM | C[C@H]1CN(c2ccc(Nc3ncc(F)c(Nc4ccc5c(n4)NC(=O)CO5)n3)cn2)[C@@H](C)CO1 (racemic) [Compound 104, rac-N4-(3,4-dihydro-3-oxo-2H-pyrido[3,2-b][1,4]oxazin-6-yl)-N2-[6-(2,5-dimethylmorpholino)pyridin-3-yl]-5-fluoro-2,4-pyrimidinediamine]
9 | < 100 nM | CC1(C)Oc2ccc(Nc3nc(Nc4ccc(N5CC[C@@H](F)C5)nc4)ncc3F)nc2NC1=O [Compound 136, (R)—N4-(2,2-dimethyl-3,4-dihydro-3-oxo-2H-pyrido[3,2-b][1,4]oxazin-6-yl)-5-fluoro-N2-[6-(3-fluoropyrrolidin-1-yl)pyrid-3-yl]-2,4-pyrimidinediamine]
10 | 100 to 500 nM | CN(C)c1ccc(Nc2ncc(F)c(Nc3ccc4c(n3)NC(=O)C(C)(C)O4)n2)cn1 [Compound 147, N4-(2,2-dimethyl-3,4-dihydro-3-oxo-2H-pyrido[3,2-b][1,4]oxazin-6-yl)-5-fluoro-N2-[6-(dimethylamino)pyridin-3-yl]-2,4-pyrimidinediamine]
11 | < 100 nM | CC1(C)Oc2ccc(Nc3nc(Nc4ccc(N5CCO[C@@H](CF)C5)nc4)ncc3F)nc2NC1=O [Compound 145, N4-(2,2-dimethyl-3,4-dihydro-3-oxo-2H-pyrido[3,2-b][1,4]oxazin-6-yl)-5-fluoro-N2-[6-((2R)-2-(fluoromethyl)morpholino)pyridin-3-yl]-2,4-pyrimidinediamine]
12 | 1000 to 100000 nM | CN(C[C@H]1CCCO1)c1ccc(Nc2ncc(F)c(Nc3ccc4c(n3)NC(=O)CO4)n2)cn1 [Compound 110, N4-(3,4-dihydro-3-oxo-2H-pyrido[3,2-b][1,4]oxazin-6-yl)-5-fluoro-N2-[6-(((R)-methyl(tetrahydrofuran-2-yl)methyl)amino)pyridin-3-yl]-2,4-pyrimidinediamine]
13 | 1000 to 100000 nM | CC1(C)Oc2ccc(Nc3nc(Nc4ccc(N5CCSCC5)cc4)ncc3F)nc2NC1=O [Compound 153, N4-(2,2-dimethyl-3,4-dihydro-3-oxo-2H-pyrido[3,2-b][1,4]oxazin-6-yl)-5-fluoro-N2-[4-thiomorpholinophenyl]-2,4-pyrimidinediamine]
14 | 100 to 500 nM | CC1(C)Oc2ccc(Nc3nc(Nc4ccc(N5CCC6(CCOC6)CC5)cc4)ncc3F)nc2NC1=O [Compound 157, N4-(2,2-dimethyl-3,4-dihydro-3-oxo-2H-pyrido[3,2-b][1,4]oxazin-6-yl)-5-fluoro-N2-[4-(2-oxa-8-azaspiro[4.5]decan-8-yl)phenyl]-2,4-pyrimidinediamine]

Continued, compound first:

Row | Compound | IC50
15 | CC(C)[C@H]1COC(=O)N1c1ccc(Nc2ncc(F)c(Nc3ccc4c(n3)NC(=O)C(C)(C)O4)n2)cn1 [Compound 74, N4-(2,2-dimethyl-3,4-dihydro-3-oxo-2H-pyrido[3,2-b][1,4]oxazin-6-yl)-5-fluoro-N2-[6-((4S)-4-isopropyl-2-oxooxazolidin-3-yl)pyridin-3-yl]-2,4-pyrimidinediamine] | 1000 to 100000 nM
16 | CC1(C)Oc2ccc(Nc3nc(Nc4ccc(N5CCC(F)(F)CC5)c(F)c4)ncc3F)nc2NC1=O [Compound 30, N4-(2,2-dimethyl-3,4-dihydro-3-oxo-2H-pyrido[3,2-b][1,4]oxazin-6-yl)-5-fluoro-N2-[3-fluoro-4-(4,4-difluoro-1-piperidinyl)phenyl]-2,4-pyrimidinediamine] | 1000 to 100000 nM
17 | CC1(C)Oc2ccc(Nc3nc(Nc4ccc(C5CCOCC5)nc4)ncc3F)nc2NC1=O [Compound 22, N4-(2,2-dimethyl-3,4-dihydro-3-oxo-2H-pyrido[3,2-b][1,4]oxazin-6-yl)-5-fluoro-N2-[6-tetrahydropyranopyridin-3-yl]-2,4-pyrimidinediamine] | 100 to 500 nM
18 | C[C@@H]1COCCN1c1ccc(Nc2ncc(F)c(Nc3ccc4c(n3)NC(=O)C(C)(C)O4)n2)cn1 [Compound 50, N4-(2,2-dimethyl-3,4-dihydro-3-oxo-2H-pyrido[3,2-b][1,4]oxazin-6-yl)-5-fluoro-N2-[6-((3R)-3-methylmorpholino)pyridin-3-yl]-2,4-pyrimidinediamine] | < 100 nM
19 | C[C@@H]1CN(c2ccc(Nc3ncc(F)c(Nc4ccc5c(n4)NC(=O)CO5)n3)cc2)C[C@H](C)O1 [Compound 35, rac-Cis-N4-(3,4-dihydro-3-oxo-2H-pyrido[3,2-b][1,4]oxazin-6-yl)-5-fluoro-N2-[4-(2,6-dimethylmorpholino)phenyl]-2,4-pyrimidinediamine] | 100 to 500 nM
20 | C[C@@H]1COCCN1c1ccc(Nc2ncc(F)c(Nc3ccc4c(n3)NC(=O)C(C)(C)O4)n2)cc1 [Compound 81] | 100 to 500 nM
21 | CC1(C)Oc2ccc(Nc3nc(Nc4ccc(C5CCOCC5)cc4)ncc3F)nc2NC1=O [Compound 47, N4-(2,2-dimethyl-3,4-dihydro-3-oxo-2H-pyrido[3,2-b][1,4]oxazin-6-yl)-5-fluoro-N2-[4-tetrahydropyranophenyl]-2,4-pyrimidinediamine] | 1000 to 100000 nM
22 | CCOC1CCN(c2ccc(Nc3ncc(F)c(Nc4ccc5c(n4)NC(=O)C(C)(C)O5)n3)cc2)CC1 [Compound 85, N4-(2,2-dimethyl-3,4-dihydro-3-oxo-2H-pyrido[3,2-b][1,4]oxazin-6-yl)-5-fluoro-N2-[4-(4-ethoxypiperidin-1-yl)phenyl]-2,4-pyrimidinediamine] | 100 to 500 nM
23 | CCOC[C@H]1CN(c2ccc(Nc3ncc(F)c(Nc4ccc5c(n4)NC(=O)CO5)n3)cn2)CCO1 [Compound 102, N4-(3,4-dihydro-3-oxo-2H-pyrido[3,2-b][1,4]oxazin-6-yl)-N2-[6-(((2R)-2-ethoxymethyl)morpholino)pyridin-3-yl]-5-fluoro-2,4-pyrimidinediamine] | 100 to 500 nM
24 | C[C@@H]1COCCN1c1ccc(Nc2ncc(F)c(Nc3ccc4c(n3)NC(=O)CO4)n2)cc1 [Compound 82] | 100 to 500 nM
25 | CCO[C@H]1CCN(c2ccc(Nc3ncc(F)c(Nc4ccc5c(n4)NC(=O)C(C)(C)O5)n3)cn2)C1 [Compound 57, N4-(2,2-dimethyl-3,4-dihydro-3-oxo-2H-pyrido[3,2-b][1,4]oxazin-6-yl)-5-fluoro-N2-1-2,4-pyrimidinediamine] | 100 to 500 nM
26 | C[C@@H]1CN(c2ccc(Nc3ncc(F)c(Nc4ccc5c(n4)NC(=O)CO5)n3)cn2)CCO1 [Compound 6, N4-(3,4-dihydro-3-oxo-2H-pyrido[3,2-b][1,4]oxazin-6-yl)-5-fluoro-N2-[6-((2R)-2-methylmorpholino)pyridin-3-yl]-2,4-pyrimidinediamine] | < 100 nM

Same assay, conditions: anti-IgG stimulation, activity of tryptase released upon degranulation

Row | IC50 | Compound
27 | 100 to 500 nM | CC1(C)Oc2ccc(Nc3nc(Nc4ccc(N5CCOCC5)nc4)ncc3F)nc2NC1=O [Compound 142, N4-(2,2-dimethyl-3,4-dihydro-3-oxo-2H-pyrido[3,2-b][1,4]oxazin-6-yl)-5-fluoro-N2-[6-morpholinopyridin-3-yl]-2,4-pyrimidinediamine ethanesulfonic acid salt]
28 | 500 to 1000 nM | CC1(C)Oc2ccc(Nc3nc(Nc4ccc(N5CCOCC5)nc4)ncc3F)nc2NC1=O [Compound 140, N4-(2,2-dimethyl-3,4-dihydro-3-oxo-2H-pyrido[3,2-b][1,4]oxazin-6-yl)-5-fluoro-N2-[6-morpholinopyridin-3-yl]-2,4-pyrimidinediamine hydrochloric acid salt]

Row | Compound | IC50
29 | CC1(C)Oc2ccc(Nc3nc(Nc4ccc(N5CCOCC5)c(F)c4)ncc3F)nc2N(COP(=O)(O)O)C1=O [Compound 113, N4-(2,2-dimethyl-3,4-dihydro-4-[(dihydrogenphosphonoxy)methyl]-3-oxo-2H-pyrido[3,2-b][1,4]oxazin-6-yl)-5-fluoro-N2-(3-fluoro-4-morpholinophenyl)-2,4-pyrimidinediamine disodium salt] | 1000 to 100000 nM
